Measured values reported in patent US20030215930A1, “Genes involved in cyclododecanone degradation pathway” (priority 2002, published 2003).

Legend:
Rhodococcus ruber SC1 = assay: Growth of Rhodococcus ruber SC1 on cyclic ketones as sole carbon and energy source; format: cell-based; conditions: cyclic ketone as sole carbon and energy source
Experimental: Synthetic S12 medium was used to establish enrichment. S12 medium contains the following: 10 mM ammonium sulfate, 50 mM potassium phosphate buffer (pH 7.0), 2 mM MgCl2, 0.7 mM CaCl2, 50 μM MnCl2, 1 μM FeCl3, 1 μM […], 1.72 μM CuSO4, 2.53 μM CoCl2, 2.42 μM […], and 0.0001% FeSO4. The carbon sources were added directly to the S12 medium and the bacteria were grown in sealed culture flasks.
S12 agar was used to test isolates that utilize compounds as the sole source of carbon and energy. S12 agar was prepared by adding 1.5% Noble agar (DIFCO) to S12 medium. Bacteria growing on S12 agar were supplied with volatile compounds such as cyclododecanone by sprinkling solids of the volatile compound on the interior of the petri dish lid or 5 μl of other volatile liquid as vapor. The petri dish was sealed with parafilm and incubated with the lid on the bottom.
Rhodococcus ruber SC1 isolated from cyclododecanone (C12 cyclic ketone) enrichment culture was also tested for growth on cyclic ketones of different carbon numbers as sole carbon and energy source (Table 3). It grows well on cyclopentadecanone (C15 cyclic ketone), cyclotridecanone (C13 cyclic ketone), cyclododecanone (C12 cyclic ketone) and cycloundecanone (C11 cyclic ketone).

[1] = system: monooxygenase and esterase on the S8C; assay: Production of different chain length hydroxy acids from cyclic ketones by recombinant E. coli cosmid clone S8C (GC/MS); format: cell-based, Escherichia coli; conditions: cyclic ketone substrate at 250 mg/L
Experimental: Transformed XL1-Blue MR cells were grown in M9 medium with 0.4% glucose as sole carbon source. Substrate for conversion was added at early log phase (OD=0.2) and cells were allowed to grow at 30° C. for 20 additional hours. Cells were then frozen and thawed once, centrifiged, and supernatant was filtered through 0.2 μm filters. Filtrate was prepared for GC/MS analysis as described below.
Filtrate was first acidified to pH 2 using concentrated HCl. The acidified sample was extracted twice with methylene chloride or ethyl acetate. The extracts were combined and dried by adding anhydrous magnesium sulfate. Magnesium sulfate was then removed by filteration using Whatman 3MM filter paper and the remaining solvent in the filtrate was evaporated under a gentle stream of nitrogen. […]
Example 8 explores whether the cyclic substrates could be expanded to cyclic ketones of different chain length and whether corresponding hydroxy acids could be produced. […] Large amount of corresponding hydroxy acids were detected from S8C grown in the presence of C11, C12 and C13 cyclic ketones. Medium level of 15-hydroxy acid was detected from C15 cyclic ketone grown cells. Small amount of hydroxy acids was detected from cells grown on C6 and C10 cyclic ketones. […]

O=C1CCCCC1 [C6, cyclohexanone]
Growth of Rhodococcus ruber SC1 (Rhodococcus ruber SC1): does not grow
Corresponding Hydroxy Acid Produced by E. coli Cosmids [1]: Small amount

O=C1CCCCCC1 [C7, cycloheptanone]
Growth of Rhodococcus ruber SC1 (Rhodococcus ruber SC1): does not grow

O=C1CCCCCCC1 [C8, cyclooctanone]
Growth of Rhodococcus ruber SC1 (Rhodococcus ruber SC1): does not grow

O=C1CCCCCCCCC1 [C10, cyclodecanone]
Growth of Rhodococcus ruber SC1 (Rhodococcus ruber SC1): grows moderately well
Corresponding Hydroxy Acid Produced by E. coli Cosmids [1]: Small amount

O=C1CCCCCCCCCC1 [C11, cycloundecanone]
Growth of Rhodococcus ruber SC1 (Rhodococcus ruber SC1): grows well

O=C1CCCCCCCCCCC1 [C12, cyclododecanone]
Growth of Rhodococcus ruber SC1 (Rhodococcus ruber SC1): grows well

O=C1CCCCCCCCCCCC1 [C13, cyclotridecanone]
Growth of Rhodococcus ruber SC1 (Rhodococcus ruber SC1): grows well

O=C1CCCCCCCCCCCCCC1 [C15, cyclopentadecanone]
Growth of Rhodococcus ruber SC1 (Rhodococcus ruber SC1): grows well
